According to ChEMBL document CHEMBL1201862, “PubChem BioAssay data set” (2004):
Active and inactive are the calls of the source.

Legend:
[1] = M. tuberculosis H37Rv growth inhibitors, H37Rv strain (AID 1626); type: functional
[2] = target: T1, Protein Tat (Human immunodeficiency virus type 1 group M subtype B (isolate HXB2)(HIV-1), UniProt P04608); type: functional;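 note: tat binding to TAR RNA read out by fluorescence polarization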
T1 sequence (P04608 whole entry): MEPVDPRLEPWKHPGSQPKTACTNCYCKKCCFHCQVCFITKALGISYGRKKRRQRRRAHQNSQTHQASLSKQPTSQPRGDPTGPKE

[3] = growth suppression of PTEN-null colon cells, dose response, cell-based, HCT116 PTEN knockout (AID 1047); type: functional;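 note: HCT116 colon tumor cells with PTEN knocked out; cells exposed to compound for 60 hours before readout; potency for loss of cell viability measured by luminescence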
[4] = inhibitors of Vif binding to APOBEC3G peptide, primary screen, biochemical, TR-FRET, GST-Vif 1-94, biotin-A3G peptide, dose response retest (AID 1117319); type: functional;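 note: TR-FRET signal of purified GST-Vif binding a biotinylated A3G peptide; inhibitors lower the FRET signal by blocking Vif and A3G binding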
[5] = growth suppression of beta-catenin-knockout colon cells, dose response, cell-based, HCT116, human colon tumor (AID 1045); type: functional;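 note: HCT116 colon tumor cells with beta catenin knocked out; cells exposed to compound for 60 hours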
[6] = Luminescence Cell-Based Dose Retest to Confirm Inhibitors of Cancer Stem Cells. [Related pubchem assays (depositor defined):AID2717, AID2721]; type: functional; conditions: Homo sapiens
[7] = HepG2 cell cytotoxicity, dose response, cytotoxicity control, ATP luminescence, cherry-pick, activator set 2 (AID 1053143); type: functional, cell-based
[8] = target: T2, Oxysterols receptor LXR-beta (Homo sapiens, UniProt P55055); type: functional, cell-based;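 note: agonist activity at LXR measured by a cell-based luminescence readout across a dose range, run as a counterscreen for daf-12 agonists; HEK293 cells with Gal4-LXR fusion and GAL4-driven luciferase reporter; potency for activation of Gal4-LXR reporter so compounds are agonists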
T2 sequence (P55055 whole entry): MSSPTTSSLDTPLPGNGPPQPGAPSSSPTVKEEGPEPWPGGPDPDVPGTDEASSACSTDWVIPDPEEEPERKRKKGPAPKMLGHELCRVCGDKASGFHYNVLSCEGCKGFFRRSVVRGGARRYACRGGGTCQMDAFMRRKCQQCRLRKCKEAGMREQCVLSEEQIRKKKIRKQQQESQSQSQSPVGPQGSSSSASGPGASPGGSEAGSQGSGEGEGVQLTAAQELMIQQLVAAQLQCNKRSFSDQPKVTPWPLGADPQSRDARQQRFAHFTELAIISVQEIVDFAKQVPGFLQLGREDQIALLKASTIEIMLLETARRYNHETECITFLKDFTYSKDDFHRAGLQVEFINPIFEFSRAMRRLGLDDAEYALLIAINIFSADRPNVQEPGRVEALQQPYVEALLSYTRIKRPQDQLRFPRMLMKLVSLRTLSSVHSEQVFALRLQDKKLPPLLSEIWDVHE

[9] = tested on: H4; test: Luminescence Cell-Based Dose Response HTS to Identify Activators of 5'UTR Stem-Loop Driven Prion Protein mRNA Translation in H4 Neuroglioblastoma Cells. [Related pubchem assays: 1829 (Project Summary), 1814 (Primary HTS)]; type: functional; conditions: Homo sapiens
[10] = target: T3, Bcl-2-like protein 10 (Homo sapiens, UniProt Q9HD36); test: displacers of TR3 peptide from Bcl-B, primary screen, selectivity assay for Bfl-1 inhibitor project, biochemical, fluorescence polarization, FITC-TR3 peptide (AID 748);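 note: fluorescence polarization from a fluorescein-labelled TR3 peptide binding purified Bcl-B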
T3 sequence (Q9HD36 whole entry): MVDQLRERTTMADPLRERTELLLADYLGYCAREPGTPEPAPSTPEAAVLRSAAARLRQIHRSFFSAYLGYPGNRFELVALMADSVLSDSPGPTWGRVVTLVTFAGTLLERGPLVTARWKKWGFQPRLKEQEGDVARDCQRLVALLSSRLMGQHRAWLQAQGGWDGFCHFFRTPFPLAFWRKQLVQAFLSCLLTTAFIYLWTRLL

[11] = Luminescence Cell-Based Dose Confirmation HTS to Identify Activators of 5'UTR Stem-Loop Driven Alpha-Synuclein mRNA Translation in H4 Neuroglioblastoma Cells. [Related pubchem assays: 1829 (Project Summary), 1814 (Primary HTS)]; type: functional
[12] = Luminescence Cell-Based Dose Response HTS to Identify Activators of Luciferase Translation or Activity in H4 […] Cells. [Related pubchem assays: 1829 (Project Summary), 1814 (Primary HTS)]; type: functional
[13] = cytotoxicity in MIN6 insulinoma cells, dose response, cytotoxicity control, cell-based, mouse insulinoma (AID 2122); type: functional;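 note: confirmatory high-throughput counterscreen run to flag cytotoxic compounds; mouse MIN-6 beta cells carrying an insulin promoter eGFP reporter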
[14] = insulin promoter down-regulators in MIN6 cells, imaging, high-content screening, mouse beta cells (AID 1628); type: functional
[15] = inhibitors of PGC1a acetylation in cells, dose response, cell-based, cherry-picked samples (AID 720514); type: functional;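 note: potency may reflect raised or lowered acetylation signal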
[16] = target: Glyceraldehyde-3-phosphate dehydrogenase (Homo sapiens, UniProt P04406)
[17] = target: Protein Wnt-3a (Mus musculus, UniProt P27467); test: Wnt3a-driven reporter signaling inhibition, dose response, selectivity assay for Gli-SUFU antagonist project, Wnt-LIGHT cells, luminescence (AID 651570); type: functional; conditions: read-out: IC50_Mean;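 note: Wnt-LIGHT reporter cells stimulated with conditioned medium from Wnt3a-producing cells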
[18] = HepG2 cell cytotoxicity, dose response, cytotoxicity control for Shn3 inhibitor project, CellTiter-Glo, cherry-picked (AID 624134); type: functional, cell-based
[19] = control 3'UTR Renilla luciferase suppression, dose response, counter-screen for Shn3 inhibitor project, cell-based, Clone20-Shn3RL, cherry-picked (AID 624133); type: functional
[20] = Luminescence-based counterscreen assay for KLF5 inhibitors: dose response cell-based high throughput screening assay to identify cytotoxic compounds using the IEC-6 intestinal epithelial cell line. [Related pubchem assays: 1700 (Primary screen.), 1834 (Confirmation screen.), 1858 (Summary AID.), 1905 (Counterscreen.)]; type: functional
[21] = target: T4, COUP transcription factor 2 (Homo sapiens, UniProt P24468); test: Luminescence-based cell-based high throughput dose response assay to identify inhibitors of COUP-TFII (NR2F2).; type: functional;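 note: HEK293 cells transiently cotransfected with COUP-TFII expression vector and reporter; luciferase reporter luminescence driven by COUP-TFII from the pX2-168 reporter plasmid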
T4 sequence (P24468 whole entry): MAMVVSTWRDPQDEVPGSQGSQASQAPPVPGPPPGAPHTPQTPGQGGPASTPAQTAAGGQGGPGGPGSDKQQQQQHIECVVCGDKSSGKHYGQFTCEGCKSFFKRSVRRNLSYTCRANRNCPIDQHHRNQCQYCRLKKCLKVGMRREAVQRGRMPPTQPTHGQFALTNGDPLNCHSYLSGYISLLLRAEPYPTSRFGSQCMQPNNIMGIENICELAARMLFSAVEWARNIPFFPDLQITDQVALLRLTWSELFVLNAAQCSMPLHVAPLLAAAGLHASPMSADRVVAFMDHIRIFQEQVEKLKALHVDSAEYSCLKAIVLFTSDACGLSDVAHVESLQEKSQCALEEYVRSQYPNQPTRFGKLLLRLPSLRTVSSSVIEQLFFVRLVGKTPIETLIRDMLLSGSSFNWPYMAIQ

[22] = target: Trypsin (Sus scrofa, UniProt P00761); test: porcine trypsin inhibitors, dose response, selectivity assay for Rce1 protease inhibitor project, biochemical, quenched peptide fluorescence, cherry-pick (AID 488789)
[23] = target: T5, CAAX prenyl protease 2 (Saccharomyces cerevisiae S288c, UniProt Q03530); type: biochemical
T5 sequence (Q03530 whole entry): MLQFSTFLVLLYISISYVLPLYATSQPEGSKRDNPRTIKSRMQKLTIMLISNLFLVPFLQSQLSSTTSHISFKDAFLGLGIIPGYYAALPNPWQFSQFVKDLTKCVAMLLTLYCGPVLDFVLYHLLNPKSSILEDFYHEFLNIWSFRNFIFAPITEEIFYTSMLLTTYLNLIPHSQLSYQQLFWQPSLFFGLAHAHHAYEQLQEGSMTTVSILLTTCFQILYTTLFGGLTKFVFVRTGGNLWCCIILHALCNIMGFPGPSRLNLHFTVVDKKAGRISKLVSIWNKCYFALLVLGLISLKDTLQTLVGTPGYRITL

[24] = cells
[25] = target: Major prion protein (Homo sapiens, UniProt P04156); type: functional, cell-based

SMILES: COCC(=O)Nc1ccc(Br)c(C)c1
- IC50 [1]: > 100 µM (active)

SMILES: COCCNc1nnc(SC(C)C(=O)Nc2ccc(-c3nc4ccc(C)cc4s3)cc2)s1 (stereo not given)
- IC50 [2]: > 100 µM (active)
- EC50 [3]: 30 µM (active)
- IC50 [4]: > 50 µM (active)
- EC50 [5]: 39.1 µM (active)
- AC50 [6]: 10.5 µM (active)

SMILES: O=C(Nc1ncccc1O)c1cc2ccccc2o1
- AC50 [7]: 26 µM (active)
- EC50 [8]: > 67.6 µM (inactive)

SMILES: O=C(CCN1CCc2ccccc21)c1ccc2c(c1)OCCO2
- EC50 [9]: 46.1 µM (active)
- IC50 [10]: 59.3 µM (inactive)
- EC50 [11]: 53.2 µM (active)
- EC50 [12]: 110 µM (active)

SMILES: COc1ccc(C(NC(=O)c2c(F)c(F)c(F)c(F)c2F)c2ccccc2)cc1 (stereo not given)
- IC50 [13]: 1.7 µM (active)
- EC50 [3]: 27.4 µM (active)
- EC50 [5]: 16.8 µM (active)
- IC50 [14]: 1.79 µM (active)
- AC50 [15]: 4.77 µM (active)

SMILES: O=C1C(Cl)=C(N2CCN(CCOCCO)CC2)C(=O)N1c1cccc(C(F)(F)F)c1
- IC50 [16]: > 50 µM (inconclusive)

SMILES: CC(C)CC(NC(=O)CCCNC(=O)CCC(=O)OC1O[C@H]2OC3(C)CC[C@H]4[C@H](C)CCC(C1C)C24OO3)C(=O)O (stereo not given in full)
- IC50 [17]: 304 nM (active)
- AC50 [18]: > 70 µM (inactive)
- AC50 [19]: 5.65 µM (active)
- IC50 [20]: 31.8 µM (not active)
- IC50 [21]: > 85.4 µM (inactive)

SMILES: COc1cc2cc(C(=O)O)[nH]c2c(OC)c1OC
- AC50 [22]: 23 µM (active)
- AC50 [23]: > 100 µM (inactive)

SMILES: NC(=O)c1ccc(-c2ccc(Br)cc2)o1
- IC50 [24]: > 138 µM (inactive)
- IC50 [25]: 7.42 µM (active)

SMILES: CCc1ccc(NC(=O)CSc2nnc(-c3cnccn3)n2Cc2ccco2)cc1
- AC50 [15]: 32.5 µM (active)

SMILES: COC(=O)CSc1nc(Cc2ccccc2)nc2ccccc12
- IC50 [24]: > 138 µM (inactive)
- IC50 [25]: 3.29 µM (active)
